Assay results: PMC9570041, “Synthesis of Novel α-Trifluoroanisole Derivatives Containing Phenylpyridine Moieties with Herbicidal Activity” (International Journal of Molecular Sciences, 2022)
Read-outs that look alike come from different tables or passages of the source.

Target: T1, Nicotiana tabacum protoporphyrinogen oxidase (NtPPO) (Nicotiana tabacum, UniProt O24164)
T1 construct: gene PPXII
T1 sequence (O24164 1-504): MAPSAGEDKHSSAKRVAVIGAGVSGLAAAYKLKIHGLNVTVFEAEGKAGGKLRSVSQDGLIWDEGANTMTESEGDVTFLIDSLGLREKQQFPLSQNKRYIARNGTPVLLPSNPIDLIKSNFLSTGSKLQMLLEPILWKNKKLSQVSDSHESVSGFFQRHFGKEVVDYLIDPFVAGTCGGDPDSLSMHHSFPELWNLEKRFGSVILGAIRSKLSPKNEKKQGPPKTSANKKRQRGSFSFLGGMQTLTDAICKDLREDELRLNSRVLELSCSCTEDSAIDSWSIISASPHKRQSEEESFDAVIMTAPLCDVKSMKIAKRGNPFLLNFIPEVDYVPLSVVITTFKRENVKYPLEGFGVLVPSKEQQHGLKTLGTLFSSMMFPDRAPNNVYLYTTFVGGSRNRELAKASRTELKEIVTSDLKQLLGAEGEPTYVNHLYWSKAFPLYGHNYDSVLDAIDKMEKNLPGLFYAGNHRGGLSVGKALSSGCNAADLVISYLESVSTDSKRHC
Experiment: NtPPO inhibition in vitro, protoporphyrin IX formation by absorbance at […] nm
Assay type: biochemical

| SMILES | IC50 | IC50 (read-out: IC50) |
| --- | --- | --- |
| FC(F)(F)Oc1ccc(COc2ccc(-c3ncc(C(F)(F)F)cc3Cl)cc2)cc1 [7a, 3-Chloro-2-(4-((4-(trifluoromethoxy)benzyl)oxy)phenyl)-5-(trifluoromethyl)pyridine] | 0.0094 ± 0.0022 µM |  |
| CS(=O)(=O)NC(=O)c1cc(Oc2ccc(C(F)(F)F)cc2Cl)ccc1[N+](=O)[O-] [fomesafen] |  | 0.11 ± 0.0012 µM |
